Assay results reported in ChEMBL document CHEMBL1201862, “PubChem BioAssay data set” (2004).
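Compound exposure: 48 hours, 5 concentrations, 96-well plates. GI50: concentration for 50% inhibition of growth.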 Calls of active or inactive are those of the source. No stated cut-off is given here; in the data, active = GI50 up to about 1.1 µM and inactive = higher.

Assays:
Assay in all cases: inhibition of tumour cell growth, NCI panel, 48 h
RXF 393 = test system: RXF 393
DU-145 = test system: DU-145
UACC-62 = test system: UACC-62
ACHN = test system: ACHN
MCF7 = test system: MCF7
SF-268 = test system: SF-268
SF-539 = test system: SF-539
NCI-H522 = test system: NCI-H522
NCI-H226 = test system: NCI-H226
PC-3 = test system: PC-3
NCI-H460 = test system: NCI-H460
OVCAR-8 = test system: OVCAR-8
TK-10 = test system: TK-10
HT-29 = test system: HT-29
COLO 205 = test system: COLO 205
UACC-257 = test system: UACC-257
NCI/ADR-RES = test system: NCI/ADR-RES
SK-MEL-5 = test system: SK-MEL-5
OVCAR-5 = test system: OVCAR-5
MDA-N = test system: MDA-N

## CC(=O)OC12COC1CC(O)C1(C)C(=O)C(O)C3=C(C)C(O)CC(O)(C(OC(=O)c4ccccc4)C21)C3(C)C (stereo not drawn)
RXF 393
  GI50: > 65.6 µM (inactive)
DU-145
  GI50: 8.43 µM (inactive)
UACC-62
  GI50: > 100 µM (inactive)
ACHN
  GI50: 90.2 µM (inactive)
MCF7
  GI50: 1.68 µM (inactive)
SF-268
  GI50: 3.41 µM (inactive)
SF-539
  GI50: 1.16 µM (inactive)
NCI-H522
  GI50: 0.638 µM (active)
NCI-H226
  GI50: 6.01 µM (inactive)
PC-3
  GI50: 3.03 µM (inactive)
NCI-H460
  GI50: 2.92 µM (inactive)
OVCAR-8
  GI50: 6.98 µM (inactive)
TK-10
  GI50: > 74 µM (inactive)
HT-29
  GI50: 1.31 µM (inactive)
COLO 205
  GI50: 1.14 µM (inactive)
UACC-257
  GI50: 5 µM (inactive)
NCI/ADR-RES
  GI50: > 100 µM (inactive)
SK-MEL-5
  GI50: 3.44 µM (inactive)
OVCAR-5
  GI50: 3.94 µM (inactive)

## O=C1Cc2c([nH]c3ccc(Br)cc23)-c2cc(Br)ccc2N1
DU-145
  GI50: > 100 µM (inactive)
UACC-62
  GI50: > 100 µM (inactive)
ACHN
  GI50: > 100 µM (inactive)
MCF7
  GI50: > 100 µM (inactive)
SF-268
  GI50: > 100 µM (inactive)
SF-539
  GI50: > 100 µM (inactive)
NCI-H226
  GI50: > 100 µM (inactive)
PC-3
  GI50: > 100 µM (inactive)
NCI-H460
  GI50: > 100 µM (inactive)
OVCAR-8
  GI50: > 100 µM (inactive)
TK-10
  GI50: > 100 µM (inactive)
COLO 205
  GI50: > 100 µM (inactive)
UACC-257
  GI50: > 100 µM (inactive)
NCI/ADR-RES
  GI50: > 100 µM (inactive)
SK-MEL-5
  GI50: > 100 µM (inactive)
OVCAR-5
  GI50: > 100 µM (inactive)

## COC(=O)/C(=N\Nc1nnc(C)n1N)C(C#N)c1ccccc1 (stereo not drawn)
RXF 393
  GI50: > 100 µM (inactive)
DU-145
  GI50: > 100 µM (inactive)
UACC-62
  GI50: > 100 µM (inactive)
ACHN
  GI50: 27.8 µM (inactive)
SF-268
  GI50: > 100 µM (inactive)
SF-539
  GI50: 64.1 µM (inactive)
NCI-H522
  GI50: > 100 µM (inactive)
NCI-H226
  GI50: > 100 µM (inactive)
PC-3
  GI50: > 100 µM (inactive)
NCI-H460
  GI50: > 100 µM (inactive)
OVCAR-8
  GI50: > 73.3 µM (inactive)
MDA-N
  GI50: 23.4 µM (inactive)
TK-10
  GI50: > 100 µM (inactive)
HT-29
  GI50: > 63.1 µM (inactive)
COLO 205
  GI50: > 63.2 µM (inactive)
UACC-257
  GI50: 40.6 µM (inactive)
NCI/ADR-RES
  GI50: > 100 µM (inactive)
SK-MEL-5
  GI50: 92.3 µM (inactive)
OVCAR-5
  GI50: > 100 µM (inactive)

## NS(=O)(=O)c1nnc(NS(=O)(=O)c2ccccc2[N+](=O)[O-])s1
RXF 393
  GI50: > 100 µM (inactive)
DU-145
  GI50: > 100 µM (inactive)
UACC-62
  GI50: > 100 µM (inactive)
ACHN
  GI50: > 100 µM (inactive)
MCF7
  GI50: > 100 µM (inactive)
SF-268
  GI50: > 100 µM (inactive)
SF-539
  GI50: > 100 µM (inactive)
NCI-H522
  GI50: > 100 µM (inactive)
NCI-H226
  GI50: > 100 µM (inactive)
PC-3
  GI50: > 100 µM (inactive)
NCI-H460
  GI50: > 100 µM (inactive)
TK-10
  GI50: > 100 µM (inactive)
HT-29
  GI50: > 100 µM (inactive)
COLO 205
  GI50: > 100 µM (inactive)
NCI/ADR-RES
  GI50: > 100 µM (inactive)
SK-MEL-5
  GI50: > 100 µM (inactive)
OVCAR-5
  GI50: > 100 µM (inactive)

## CC(C)(C)OC/C=C(/CO)[C@@H]1C=C[C@H](O)C1
UACC-62
  GI50: > 100 µM (inactive)
ACHN
  GI50: > 100 µM (inactive)
MCF7
  GI50: > 100 µM (inactive)
SF-268
  GI50: > 100 µM (inactive)
SF-539
  GI50: > 100 µM (inactive)
NCI-H226
  GI50: > 100 µM (inactive)
PC-3
  GI50: > 100 µM (inactive)
NCI-H460
  GI50: > 100 µM (inactive)
MDA-N
  GI50: > 100 µM (inactive)
HT-29
  GI50: > 100 µM (inactive)
COLO 205
  GI50: > 100 µM (inactive)
UACC-257
  GI50: > 100 µM (inactive)
NCI/ADR-RES
  GI50: > 100 µM (inactive)
OVCAR-5
  GI50: > 100 µM (inactive)

## CC1C(c2ccccc2)O[B-](F)(c2ccccc2)[NH+]1C (stereo not drawn)
DU-145
  GI50: > 100 µM (inactive)
UACC-62
  GI50: > 100 µM (inactive)
ACHN
  GI50: > 100 µM (inactive)
MCF7
  GI50: > 100 µM (inactive)
SF-268
  GI50: > 100 µM (inactive)
NCI-H226
  GI50: > 100 µM (inactive)
PC-3
  GI50: > 100 µM (inactive)
NCI-H460
  GI50: > 100 µM (inactive)
OVCAR-8
  GI50: > 100 µM (inactive)
MDA-N
  GI50: > 100 µM (inactive)
TK-10
  GI50: > 100 µM (inactive)
HT-29
  GI50: > 100 µM (inactive)
COLO 205
  GI50: > 100 µM (inactive)
UACC-257
  GI50: > 100 µM (inactive)
NCI/ADR-RES
  GI50: > 100 µM (inactive)
SK-MEL-5
  GI50: > 100 µM (inactive)
OVCAR-5
  GI50: > 100 µM (inactive)

## CC(=O)N1C(Nc2ccccc2)CCN1c1ccccc1 (stereo not drawn)
RXF 393
  GI50: > 10 µM (inactive)
DU-145
  GI50: > 10 µM (inactive)
ACHN
  GI50: 4.22 µM (inactive)
MCF7
  GI50: > 10 µM (inactive)
SF-268
  GI50: 3.54 µM (inactive)
SF-539
  GI50: 5.19 µM (inactive)
NCI-H522
  GI50: > 10 µM (inactive)
NCI-H226
  GI50: > 10 µM (inactive)
PC-3
  GI50: 4.01 µM (inactive)
NCI-H460
  GI50: > 10 µM (inactive)
OVCAR-8
  GI50: > 10 µM (inactive)
TK-10
  GI50: > 10 µM (inactive)
HT-29
  GI50: 5.77 µM (inactive)
COLO 205
  GI50: > 10 µM (inactive)
UACC-257
  GI50: > 10 µM (inactive)
NCI/ADR-RES
  GI50: 9.89 µM (inactive)
SK-MEL-5
  GI50: > 10 µM (inactive)
OVCAR-5
  GI50: > 10 µM (inactive)

## CC1(N2CCOCC2)CC2C(=[N+]1[O-])CCC/C2=N/O (stereo not drawn)
RXF 393
  GI50: > 100 µM (inactive)
UACC-62
  GI50: > 100 µM (inactive)
ACHN
  GI50: > 100 µM (inactive)
MCF7
  GI50: > 100 µM (inactive)
SF-268
  GI50: > 100 µM (inactive)
SF-539
  GI50: > 100 µM (inactive)
NCI-H522
  GI50: > 100 µM (inactive)
NCI-H226
  GI50: > 100 µM (inactive)
PC-3
  GI50: > 100 µM (inactive)
NCI-H460
  GI50: > 100 µM (inactive)
OVCAR-8
  GI50: > 100 µM (inactive)
MDA-N
  GI50: > 100 µM (inactive)
TK-10
  GI50: > 100 µM (inactive)
HT-29
  GI50: > 100 µM (inactive)
UACC-257
  GI50: > 100 µM (inactive)
NCI/ADR-RES
  GI50: > 100 µM (inactive)
SK-MEL-5
  GI50: > 100 µM (inactive)
OVCAR-5
  GI50: > 100 µM (inactive)

## CCOC(=O)/C(C#N)=C(/NNc1ccccc1)c1ccncc1C(=O)O
RXF 393
  GI50: > 100 µM (inactive)
DU-145
  GI50: > 42.7 µM (inactive)
UACC-62
  GI50: 5.15 µM (inactive)
ACHN
  GI50: > 21.5 µM (inactive)
MCF7
  GI50: > 64.9 µM (inactive)
SF-268
  GI50: > 100 µM (inactive)
SF-539
  GI50: 24.7 µM (inactive)
NCI-H522
  GI50: > 100 µM (inactive)
NCI-H226
  GI50: > 100 µM (inactive)
PC-3
  GI50: 7.08 µM (inactive)
NCI-H460
  GI50: > 28.1 µM (inactive)
OVCAR-8
  GI50: > 32.4 µM (inactive)
MDA-N
  GI50: > 40.8 µM (inactive)
TK-10
  GI50: > 100 µM (inactive)
HT-29
  GI50: > 63.5 µM (inactive)
COLO 205
  GI50: 4.37 µM (inactive)
UACC-257
  GI50: 26.2 µM (inactive)
SK-MEL-5
  GI50: 9.82 µM (inactive)
OVCAR-5
  GI50: > 72.1 µM (inactive)

## O=C(O)c1ccc2c(c1)Cc1cc([N+](=O)[O-])ccc1-2
DU-145
  GI50: > 100 µM (inactive)
UACC-62
  GI50: > 100 µM (inactive)
ACHN
  GI50: > 100 µM (inactive)
MCF7
  GI50: > 100 µM (inactive)
SF-268
  GI50: > 100 µM (inactive)
SF-539
  GI50: > 100 µM (inactive)
NCI-H522
  GI50: > 100 µM (inactive)
NCI-H226
  GI50: 52.1 µM (inactive)
NCI-H460
  GI50: > 100 µM (inactive)
OVCAR-8
  GI50: 59.7 µM (inactive)
TK-10
  GI50: 61 µM (inactive)
HT-29
  GI50: > 100 µM (inactive)
COLO 205
  GI50: > 100 µM (inactive)
UACC-257
  GI50: 44.1 µM (inactive)
NCI/ADR-RES
  GI50: > 100 µM (inactive)
SK-MEL-5
  GI50: > 100 µM (inactive)
OVCAR-5
  GI50: > 100 µM (inactive)

## CC(=O)Nc1ccc(Nc2cc(=O)n(C)c(=O)[nH]2)cc1
RXF 393
  GI50: > 100 µM (inactive)
UACC-62
  GI50: > 100 µM (inactive)
ACHN
  GI50: > 100 µM (inactive)
MCF7
  GI50: > 100 µM (inactive)
SF-268
  GI50: > 100 µM (inactive)
SF-539
  GI50: > 100 µM (inactive)
NCI-H522
  GI50: > 100 µM (inactive)
NCI-H226
  GI50: > 100 µM (inactive)
PC-3
  GI50: > 100 µM (inactive)
NCI-H460
  GI50: > 100 µM (inactive)
OVCAR-8
  GI50: > 100 µM (inactive)
MDA-N
  GI50: > 100 µM (inactive)
TK-10
  GI50: > 100 µM (inactive)
HT-29
  GI50: > 100 µM (inactive)
COLO 205
  GI50: > 100 µM (inactive)
UACC-257
  GI50: > 100 µM (inactive)
NCI/ADR-RES
  GI50: > 100 µM (inactive)
SK-MEL-5
  GI50: > 100 µM (inactive)
OVCAR-5
  GI50: > 100 µM (inactive)
